Laboratory results taken from ChEMBL document CHEMBL4507304, “Data for DCP probe TP-021” (2021).

What was measured:
[1] = target: Serine/threonine-protein kinase Nek5 (Homo sapiens) (UniProt Q6P3R8); conditions: Compound concentration 1000.0 nM
[2] = target: NUAK family SNF1-like kinase 2 (Homo sapiens) (UniProt Q9H093); conditions: Compound concentration 1000.0 nM
[3] = target: Tyrosine-protein kinase ABL2 (Homo sapiens) (UniProt P42684); conditions: Compound concentration 1000.0 nM
[4] = target: TGF-beta receptor type-1 (Homo sapiens) (UniProt P36897); conditions: Compound concentration 1000.0 nM
[5] = test system: Receptor-type tyrosine-protein kinase FLT3 (Homo sapiens), P36888 [UNDEFINED MUTATION]; conditions: Compound concentration 1000.0 nM
[6] = target: Ephrin type-A receptor 6 (Homo sapiens) (UniProt Q9UF33); conditions: Compound concentration 1000.0 nM
[7] = target: Mitogen-activated protein kinase 11 (Homo sapiens) (UniProt Q15759); conditions: Compound concentration 1000.0 nM
[8] = target: Cyclin-dependent kinase 14 (Homo sapiens) (UniProt O94921); conditions: Compound concentration 1000.0 nM
[9] = target: Cyclin-dependent kinase 11B (Homo sapiens) (UniProt P21127); conditions: Compound concentration 1000.0 nM
[10] = target: Mitogen-activated protein kinase 3 (Homo sapiens) (UniProt P27361); conditions: Compound concentration 1000.0 nM
[11] = target: Receptor-interacting serine/threonine-protein kinase 4 (Homo sapiens) (UniProt P57078); conditions: Compound concentration 1000.0 nM
[12] = target: Serine/threonine-protein kinase Nek2 (Homo sapiens) (UniProt P51955); conditions: Compound concentration 1000.0 nM
[13] = target: Serine/threonine-protein kinase TAO1 (Homo sapiens) (UniProt Q7L7X3); conditions: Compound concentration 1000.0 nM
[14] = target: Ephrin type-A receptor 5 (Homo sapiens) (UniProt P54756); conditions: Compound concentration 1000.0 nM
[15] = target: Ephrin type-B receptor 6 (Homo sapiens) (UniProt O15197); conditions: Compound concentration 1000.0 nM
[16] = target: Calcium/calmodulin-dependent protein kinase kinase 2 (Homo sapiens) (UniProt Q96RR4); conditions: Compound concentration 1000.0 nM
[17] = target: Serine/threonine-protein kinase PLK3 (Homo sapiens) (UniProt Q9H4B4); conditions: Compound concentration 1000.0 nM
[18] = target: Calcium-dependent protein kinase 1 (Plasmodium falciparum) (UniProt P62344); conditions: Compound concentration 1000.0 nM
[19] = target: Activin receptor type-1-like (Homo sapiens) (UniProt P37023); conditions: Compound concentration 1000.0 nM
[20] = target: Ribosomal protein S6 kinase alpha-3 (Homo sapiens) (UniProt P51812); conditions: Compound concentration 1000.0 nM
[21] = target: Muscarinic acetylcholine receptor M5 (Homo sapiens) (UniProt P08912); conditions: Compound concentration 10.0 uM
[22] = test system: Hepatocyte growth factor receptor (Homo sapiens), P08581 [Y1235D]; conditions: Compound concentration 1000.0 nM
[23] = target: Serine/threonine-protein kinase D2 (Homo sapiens) (UniProt Q9BZL6); conditions: Compound concentration 1000.0 nM
[24] = target: Ribosomal protein S6 kinase alpha-1 (Homo sapiens) (UniProt Q15418); conditions: Compound concentration 1000.0 nM
[25] = test system: ALK tyrosine kinase receptor (Homo sapiens), Q9UM73 [C1156Y]; conditions: Compound concentration 1000.0 nM
Rattus norvegicus = species on record: Rattus norvegicus; conditions: Compound concentration 10.0 uM
[26] = target: Serine/threonine-protein kinase Nek6 (Homo sapiens) (UniProt Q9HC98); conditions: Compound concentration 1000.0 nM
[27] = target: Ribosomal protein S6 kinase alpha-2 (Homo sapiens) (UniProt Q15349); conditions: Compound concentration 1000.0 nM
[28] = target: Non-receptor tyrosine-protein kinase TYK2 (Homo sapiens) (UniProt P29597); conditions: Compound concentration 1000.0 nM
[29] = target: Casein kinase II subunit alpha' (Homo sapiens) (UniProt P19784); conditions: Compound concentration 1000.0 nM
[30] = target: Cyclin-dependent kinase 5 (Homo sapiens) (UniProt Q00535); conditions: Compound concentration 1000.0 nM
[31] = target: Cyclin-dependent kinase 17 (Homo sapiens) (UniProt Q00537); conditions: Compound concentration 1000.0 nM
[32] = target: Serine/threonine-protein kinase DCLK3 (Homo sapiens) (UniProt Q9C098); conditions: Compound concentration 1000.0 nM
[33] = target: Serine/threonine-protein kinase ULK3 (Homo sapiens) (UniProt Q6PHR2); conditions: Compound concentration 1000.0 nM
[34] = target: Aurora kinase C (Homo sapiens) (UniProt Q9UQB9); conditions: Compound concentration 1000.0 nM
[35] = test system: Phosphatidylinositol 4,5-bisphosphate 3-kinase catalytic subunit alpha isoform (Homo sapiens), P42336 [C420R]; conditions: Compound concentration 1000.0 nM
[36] = test system: Phosphatidylinositol 4,5-bisphosphate 3-kinase catalytic subunit alpha isoform (Homo sapiens), P42336 [Q546K]; conditions: Compound concentration 1000.0 nM
[37] = target: Serine/threonine-protein kinase B-raf (Homo sapiens) (UniProt P15056); conditions: Compound concentration 1000.0 nM
[38] = target: Inhibitor of nuclear factor kappa-B kinase subunit epsilon (Homo sapiens) (UniProt Q14164); conditions: Compound concentration 1000.0 nM
[39] = target: Mast/stem cell growth factor receptor Kit (Homo sapiens) (UniProt P10721); conditions: Compound concentration 1000.0 nM
[40] = target: Tyrosine-protein kinase receptor Tie-1 (Homo sapiens) (UniProt P35590); conditions: Compound concentration 1000.0 nM
[41] = target: Serine/threonine-protein kinase MARK1 (Homo sapiens) (UniProt Q9P0L2); conditions: Compound concentration 1000.0 nM
[42] = target: Tyrosine-protein kinase CSK (Homo sapiens) (UniProt P41240); conditions: Compound concentration 1000.0 nM
[43] = target: 3-phosphoinositide-dependent protein kinase 1 (Homo sapiens) (UniProt O15530); conditions: Compound concentration 1000.0 nM
[44] = target: Serine/threonine-protein kinase 32A (Homo sapiens) (UniProt Q8WU08); conditions: Compound concentration 1000.0 nM

Serine/threonine-protein kinase B-raf (Homo sapiens), sequence (P15056 whole entry): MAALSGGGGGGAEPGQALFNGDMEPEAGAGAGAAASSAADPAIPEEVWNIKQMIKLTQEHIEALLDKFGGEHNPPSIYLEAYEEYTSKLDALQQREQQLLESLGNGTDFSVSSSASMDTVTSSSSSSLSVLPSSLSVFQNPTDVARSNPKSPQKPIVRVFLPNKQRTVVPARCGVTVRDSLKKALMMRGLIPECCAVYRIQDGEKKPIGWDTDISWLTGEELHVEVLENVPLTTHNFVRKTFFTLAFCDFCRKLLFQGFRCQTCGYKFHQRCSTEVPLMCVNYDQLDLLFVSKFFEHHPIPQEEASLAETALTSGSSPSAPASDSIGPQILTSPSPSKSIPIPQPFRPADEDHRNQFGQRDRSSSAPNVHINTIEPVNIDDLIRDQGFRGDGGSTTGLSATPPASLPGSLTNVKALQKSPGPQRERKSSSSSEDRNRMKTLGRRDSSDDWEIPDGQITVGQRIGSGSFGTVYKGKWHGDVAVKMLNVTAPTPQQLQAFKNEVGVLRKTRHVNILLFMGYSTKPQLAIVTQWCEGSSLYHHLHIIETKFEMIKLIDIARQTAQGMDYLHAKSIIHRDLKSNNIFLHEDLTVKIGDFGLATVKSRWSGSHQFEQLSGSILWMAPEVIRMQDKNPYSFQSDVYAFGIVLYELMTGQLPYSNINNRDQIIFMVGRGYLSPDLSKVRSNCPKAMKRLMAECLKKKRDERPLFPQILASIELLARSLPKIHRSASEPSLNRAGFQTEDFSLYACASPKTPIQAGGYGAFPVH
Tyrosine-protein kinase CSK (Homo sapiens), sequence (P41240 2-450 limits assumed): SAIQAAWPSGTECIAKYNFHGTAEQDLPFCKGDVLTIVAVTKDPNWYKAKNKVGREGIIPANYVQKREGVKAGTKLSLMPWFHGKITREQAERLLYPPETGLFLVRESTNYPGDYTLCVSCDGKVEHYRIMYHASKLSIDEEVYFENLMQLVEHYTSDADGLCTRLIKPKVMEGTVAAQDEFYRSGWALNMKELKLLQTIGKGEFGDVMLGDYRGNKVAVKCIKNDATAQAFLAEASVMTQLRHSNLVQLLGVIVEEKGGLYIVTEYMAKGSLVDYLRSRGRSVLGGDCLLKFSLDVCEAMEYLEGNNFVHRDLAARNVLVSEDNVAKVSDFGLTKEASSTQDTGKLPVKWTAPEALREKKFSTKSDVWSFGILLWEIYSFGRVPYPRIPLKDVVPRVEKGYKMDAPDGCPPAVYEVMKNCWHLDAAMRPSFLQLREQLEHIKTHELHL
Phosphatidylinositol 4,5-bisphosphate 3-kinase catalytic subunit alpha isoform (Homo sapiens), P42336 [Q546K], sequence (P42336 whole entry Q546K, canonical isoform): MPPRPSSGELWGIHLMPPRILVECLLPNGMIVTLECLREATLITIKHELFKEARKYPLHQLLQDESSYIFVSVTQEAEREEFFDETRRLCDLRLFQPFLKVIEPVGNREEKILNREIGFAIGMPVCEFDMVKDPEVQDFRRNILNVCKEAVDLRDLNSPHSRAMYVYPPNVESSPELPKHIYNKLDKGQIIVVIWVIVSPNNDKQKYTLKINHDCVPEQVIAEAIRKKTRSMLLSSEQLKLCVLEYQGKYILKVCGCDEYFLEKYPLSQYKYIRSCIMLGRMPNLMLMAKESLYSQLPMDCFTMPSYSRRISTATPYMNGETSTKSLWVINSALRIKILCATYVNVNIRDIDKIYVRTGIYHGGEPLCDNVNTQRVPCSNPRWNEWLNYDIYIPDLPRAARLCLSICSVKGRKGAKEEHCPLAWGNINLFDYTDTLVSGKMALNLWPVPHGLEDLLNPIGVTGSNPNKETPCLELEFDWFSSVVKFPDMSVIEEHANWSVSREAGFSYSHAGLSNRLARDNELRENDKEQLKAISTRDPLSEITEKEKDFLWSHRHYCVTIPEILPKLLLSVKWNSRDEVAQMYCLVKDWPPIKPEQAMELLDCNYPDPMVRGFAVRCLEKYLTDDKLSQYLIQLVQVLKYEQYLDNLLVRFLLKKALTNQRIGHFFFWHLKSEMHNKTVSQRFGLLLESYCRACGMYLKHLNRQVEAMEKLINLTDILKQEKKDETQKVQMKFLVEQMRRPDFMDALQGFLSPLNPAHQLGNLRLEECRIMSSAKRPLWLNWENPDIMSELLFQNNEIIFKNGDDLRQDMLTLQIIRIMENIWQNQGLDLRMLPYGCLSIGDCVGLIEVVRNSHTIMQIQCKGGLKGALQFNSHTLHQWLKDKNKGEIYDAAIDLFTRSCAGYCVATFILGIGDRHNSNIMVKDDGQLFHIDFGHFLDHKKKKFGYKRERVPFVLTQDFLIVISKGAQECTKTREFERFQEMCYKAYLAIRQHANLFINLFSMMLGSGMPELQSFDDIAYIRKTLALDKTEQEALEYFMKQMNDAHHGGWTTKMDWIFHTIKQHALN
Serine/threonine-protein kinase MARK1 (Homo sapiens), sequence (Q9P0L2 whole entry, looked up): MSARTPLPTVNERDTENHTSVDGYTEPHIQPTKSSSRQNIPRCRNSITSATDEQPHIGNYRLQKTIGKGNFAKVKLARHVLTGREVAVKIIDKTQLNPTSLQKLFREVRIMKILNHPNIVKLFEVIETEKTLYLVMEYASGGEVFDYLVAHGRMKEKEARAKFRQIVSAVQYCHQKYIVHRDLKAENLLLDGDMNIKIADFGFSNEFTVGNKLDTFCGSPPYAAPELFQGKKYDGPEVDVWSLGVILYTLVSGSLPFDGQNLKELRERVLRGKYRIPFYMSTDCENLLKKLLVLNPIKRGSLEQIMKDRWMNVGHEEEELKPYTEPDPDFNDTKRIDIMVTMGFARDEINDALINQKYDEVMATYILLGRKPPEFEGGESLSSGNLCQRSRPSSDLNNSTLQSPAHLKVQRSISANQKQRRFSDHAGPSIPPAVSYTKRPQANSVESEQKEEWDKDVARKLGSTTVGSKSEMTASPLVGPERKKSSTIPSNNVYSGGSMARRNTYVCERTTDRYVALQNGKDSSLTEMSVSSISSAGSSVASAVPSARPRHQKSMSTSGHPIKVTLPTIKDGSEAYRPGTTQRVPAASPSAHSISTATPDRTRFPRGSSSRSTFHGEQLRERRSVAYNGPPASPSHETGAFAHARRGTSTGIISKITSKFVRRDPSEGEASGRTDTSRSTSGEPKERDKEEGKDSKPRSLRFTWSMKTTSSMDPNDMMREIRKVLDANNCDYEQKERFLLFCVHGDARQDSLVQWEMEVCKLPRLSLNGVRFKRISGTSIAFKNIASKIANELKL
Aurora kinase C (Homo sapiens), sequence (Q9UQB9 whole entry, canonical isoform): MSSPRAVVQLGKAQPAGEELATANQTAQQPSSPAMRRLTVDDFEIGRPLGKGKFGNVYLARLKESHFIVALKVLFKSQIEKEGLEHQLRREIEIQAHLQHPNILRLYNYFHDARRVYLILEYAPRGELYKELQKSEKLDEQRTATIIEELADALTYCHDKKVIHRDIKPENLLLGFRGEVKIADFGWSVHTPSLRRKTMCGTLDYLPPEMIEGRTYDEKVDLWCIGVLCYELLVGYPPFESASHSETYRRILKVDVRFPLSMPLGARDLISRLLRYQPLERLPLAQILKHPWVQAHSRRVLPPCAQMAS
Phosphatidylinositol 4,5-bisphosphate 3-kinase catalytic subunit alpha isoform (Homo sapiens), P42336 [C420R], sequence (P42336 whole entry C420R, canonical isoform): as the sequence (P42336 whole entry Q546K, canonical isoform) above, with C420R, K546Q counted along it
Serine/threonine-protein kinase Nek6 (Homo sapiens), sequence (Q9HC98 whole entry): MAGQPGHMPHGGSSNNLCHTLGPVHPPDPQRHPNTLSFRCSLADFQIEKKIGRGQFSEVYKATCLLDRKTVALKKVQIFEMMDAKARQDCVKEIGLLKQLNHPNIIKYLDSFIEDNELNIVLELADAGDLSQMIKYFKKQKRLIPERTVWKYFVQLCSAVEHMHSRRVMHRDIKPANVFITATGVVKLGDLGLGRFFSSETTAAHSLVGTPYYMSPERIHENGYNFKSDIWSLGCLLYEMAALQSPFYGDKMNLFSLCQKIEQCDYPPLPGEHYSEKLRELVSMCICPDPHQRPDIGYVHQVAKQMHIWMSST

N#Cc1ccc(Nc2ccc3[nH]c(=O)[nH]c3c2)c(Cl)c1
inactive: residual activity [1] 100% | residual activity [2] 100% | residual activity [3] 93% | residual activity [4] 100% | residual activity [5] 100% | residual activity [6] 82% | residual activity [7] 100% | residual activity [8] 100% | residual activity [9] 100% | residual activity [10] 95% | residual activity [11] 89% | residual activity [12] 93% | residual activity [13] 97% | residual activity [14] 100% | residual activity [15] 100% | residual activity [16] 91% | residual activity [17] 84% | residual activity [18] 99% | residual activity [19] 100% | residual activity [20] 87% | inhibition [21] 12.6% | residual activity [22] 95% | residual activity [23] 100% | residual activity [24] 100% | residual activity [25] 100% | inhibition (Rattus norvegicus) 3.22% | residual activity [26] 100% | residual activity [27] 100% | residual activity [28] 100% | residual activity [29] 83% | residual activity [30] 100% | residual activity [31] 100% | residual activity [32] 88% | residual activity [33] 100% | residual activity [34] 100% | residual activity [35] 90% | residual activity [36] 93% | residual activity [37] 100% | residual activity [38] 100% | residual activity [39] 100% | residual activity [40] 91% | residual activity [41] 90% | residual activity [42] 89% | residual activity [43] 97% | residual activity [44] 81%

O=C1CCc2cc(Nc3cc(OC4CCOCC4)c([N+](=O)[O-])cc3Cl)ccc2N1
inactive: residual activity [1] 96% | residual activity [2] 89% | residual activity [3] 79% | residual activity [4] 100% | residual activity [5] 78% | residual activity [6] 80% | residual activity [7] 88% | residual activity [8] 100% | residual activity [9] 98% | residual activity [10] 78% | residual activity [11] 100% | residual activity [12] 95% | residual activity [13] 81% | residual activity [14] 93% | residual activity [15] 100% | residual activity [16] 100% | residual activity [17] 88% | residual activity [18] 100% | residual activity [19] 93% | residual activity [20] 100% | inhibition [21] 12.6% | residual activity [22] 100% | residual activity [23] 85% | residual activity [24] 100% | residual activity [25] 91% | inhibition (Rattus norvegicus) 13.4% | residual activity [26] 96% | residual activity [27] 100% | residual activity [28] 100% | residual activity [29] 76% | residual activity [30] 97% | residual activity [31] 91% | residual activity [32] 91% | residual activity [33] 100% | residual activity [34] 100% | residual activity [35] 97% | residual activity [36] 70% | residual activity [37] 100% | residual activity [38] 90% | residual activity [39] 99% | residual activity [40] 100% | residual activity [41] 99% | residual activity [42] 98% | residual activity [43] 100% | residual activity [44] 90%
